# Measured values taken from patent US9458137B2, “Substituted indol-5-ol derivatives and their therapeutical applications” (NantBioScience, Inc., priority 2012, dated 2016).
# Key:
# CK1(y) = experiment: Kinase panel activity; assay type: biochemical, yeast; conditions: 0.1 μM, ATP Km
# Description: (§1) The effect of NTW-3475 on kinase activity was tested for a wide range of kinases and is shown in Table 2: Summary Sheet, Activity % ATP Concentration: Km
# AMPKα1(h) = AMPKα1(h) (Homo sapiens, UniProt Q13131); experiment: Kinase panel activity; assay type: biochemical; conditions: 0.1 μM, ATP Km
# Description: as §1
# CDK2/cyclinA(h) = CDK2/cyclinA(h) (Homo sapiens, UniProt P24941); experiment: Kinase panel activity; assay type: biochemical; conditions: 0.1 μM, ATP Km
# Description: as §1
# CK1δ(h) = CK1δ(h) (Homo sapiens, UniProt P48730); experiment: Kinase panel activity; assay type: biochemical; conditions: 0.1 μM, ATP Km
# Description: as §1
# DAPK1(h) = DAPK1(h) (Homo sapiens, UniProt P53355); experiment: Kinase panel activity; assay type: biochemical; conditions: 0.1 μM, ATP Km
# Description: as §1
# MKK6(h) = molecular target: T1, MKK6(h) (Homo sapiens, UniProt P52564); experiment: Kinase panel activity; assay type: biochemical; conditions: 0.1 μM, ATP Km
# T1 construct: purchased Millipore (KinaseProfiler service)
# Description: as §1
# NLK(h) = NLK(h) (Homo sapiens, UniProt Q9UBE8); experiment: Kinase panel activity; assay type: biochemical; conditions: 0.1 μM, ATP Km
# Description: as §1
# PKCι(h) = PKCι(h) (Homo sapiens, UniProt P41743); experiment: Kinase panel activity; assay type: biochemical; conditions: 0.1 μM, ATP Km
# Description: as §1
# Pim-1(h) = Pim-1(h) (Homo sapiens, UniProt P11309); experiment: Kinase panel activity; assay type: biochemical; conditions: 0.1 μM, ATP Km
# Description: as §1
# Rsk2(h) = molecular target: T2, Rsk2(h) (Homo sapiens, UniProt P51812); experiment: Kinase panel activity; assay type: biochemical; conditions: 0.1 μM, ATP Km
# T2 construct: purchased Millipore (KinaseProfiler service)
# Description: as §1
# Tie2(R849W)(h) = molecular target: T3, Tie2(R849W)(h) (Homo sapiens, UniProt Q02763, R849W); experiment: Kinase panel activity; assay type: biochemical; conditions: 0.1 μM, ATP Km
# T3 construct: purchased Millipore (KinaseProfiler service)
# Description: as §1
# MLCK(h) = experiment: Kinase panel activity; assay type: biochemical, human; conditions: 0.1 μM, ATP Km
# Description: as §1
# c-RAF(h) = experiment: Kinase panel activity; assay type: biochemical, human; conditions: 0.1 μM, ATP Km
# Description: as §1
# [1] = tested on: human tumor cell lines of the cancer screening panel; experiment: in vitro antiproliferation, NCI 60 cancer cell line panel (SRB); assay type: cell-based; conditions: 48 h
# Description: NTW-3475 was also tested for its antiproliferative potential using cell lines from the NCI 60 cancer cell line panel.
# The human tumor cell lines of the cancer screening panel are grown in RPMI 1640 medium containing 5% fetal bovine serum and 2 mM L-glutamine. For a typical screening experiment, cells are inoculated into 96 well microtiter plates in 100 μL at plating densities ranging from 5,000 to 40,000 cells/well depending on the doubling time of individual cell lines. After cell inoculation, the microtiter plates are incubated at 37° C., 5% CO2, 95% air and 100% relative humidity for 24 h prior to addition of experimental drugs. […]
# Following drug addition, the plates are incubated for an additional 48 h at 37° C., 5% CO2, 95% air, and 100% relative humidity. […] Bound stain is subsequently solubilized with 10 mM trizma base, and the absorbance is read on an automated plate reader at a wavelength of 515 nm. […] Using the seven absorbance measurements [time zero, (Tz), control growth, (C), and test growth in the presence of drug at the five concentration levels (Ti)], the percentage growth is calculated at each of the drug concentrations levels. Percentage growth inhibition is calculated as: [(Ti-Tz)/(C-Tz)]×100 for concentrations for which Ti>/=Tz [(Ti-Tz)/Tz]×100 for concentrations for which Ti<Tz.
# Three dose response parameters are calculated for each experimental agent. […]
# [2] = tested on: human K562 chronic myelogenous leukemia (CML) xenograft; experiment: K562 CML xenograft model; assay type: in vivo, SCID mice; conditions: 5-day on, two-day off for two cycles; female SCID mice
# Description: The objective of the second study was to evaluate antitumor activities of novel multiple-kinase inhibitor NTW-3475 in human K562 chronic myelogenous leukemia (CML) xenograft model in female SCID mice.
# Four to six animals were randomly assigned to study groups. Each animal was weighed, and then injected subcutaneously in the left and right flank area with 0.1 ml of 8.0×10^7 K562 cells per mL.
# Each test or control animal was on a 5-day on, two-day off for two cycles treatment schedule. Tumor growth was measured with a digital hand held caliper twice weekly (once tumor emerges) prior to the first dosing and then two to three times weekly until euthanized. Animals were weighed prior to tumor cell injection, prior to dosing, two to three times weekly with tumor growth measurements, and prior to euthanasia.
# FIGS. 34 and 35 depict the results of various concentrations of NTW-3456 on a scid mouse/xenograft model of CML using K562 cells.
# [3] = tested on: TT human Thyroid carcinoma xenograft; experiment: TT thyroid carcinoma xenograft; assay type: in vivo, nude mouse; conditions: TT xenograft
# From the text: (§2) This example assesses NTW-3475's anti-tumor activity using a scid mouse xenograft models for leukemias and nude mouse xenograft models of endometrial, pancreatic and thyroid carcinomas. NTW-3475 combination therapy was also studied in murine xenografts.
# FIGS. 36-38 depict the results of various concentrations of NTW-3456 on a nude mouse/xenograft the TT cell model of thyroid carcinoma.
# [4] = tested on: AN3 human endometrial carcinoma carcinoma xenograft; experiment: AN3 endometrial carcinoma xenograft; assay type: in vivo, nude mouse; conditions: AN3 xenograft
# From the text: as §2
# FIGS. 39-41 depict the results of various concentrations of NTW-3456 on the AN3 nude mouse/xenograft model of endometrial carcinoma.
# Sequence of CK1δ(h) (P48730 whole entry): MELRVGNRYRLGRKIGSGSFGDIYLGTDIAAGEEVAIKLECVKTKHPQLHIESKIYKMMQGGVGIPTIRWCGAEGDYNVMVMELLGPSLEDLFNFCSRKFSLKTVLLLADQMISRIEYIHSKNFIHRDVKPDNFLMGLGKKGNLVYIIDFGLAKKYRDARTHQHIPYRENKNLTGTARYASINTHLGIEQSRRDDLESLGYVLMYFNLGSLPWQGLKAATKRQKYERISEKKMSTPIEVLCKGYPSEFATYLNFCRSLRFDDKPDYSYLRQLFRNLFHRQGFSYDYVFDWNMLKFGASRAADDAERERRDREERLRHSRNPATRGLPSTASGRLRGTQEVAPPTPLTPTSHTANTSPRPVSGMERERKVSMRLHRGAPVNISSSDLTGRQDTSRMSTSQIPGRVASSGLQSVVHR
# T2 sequence (P51812 whole entry): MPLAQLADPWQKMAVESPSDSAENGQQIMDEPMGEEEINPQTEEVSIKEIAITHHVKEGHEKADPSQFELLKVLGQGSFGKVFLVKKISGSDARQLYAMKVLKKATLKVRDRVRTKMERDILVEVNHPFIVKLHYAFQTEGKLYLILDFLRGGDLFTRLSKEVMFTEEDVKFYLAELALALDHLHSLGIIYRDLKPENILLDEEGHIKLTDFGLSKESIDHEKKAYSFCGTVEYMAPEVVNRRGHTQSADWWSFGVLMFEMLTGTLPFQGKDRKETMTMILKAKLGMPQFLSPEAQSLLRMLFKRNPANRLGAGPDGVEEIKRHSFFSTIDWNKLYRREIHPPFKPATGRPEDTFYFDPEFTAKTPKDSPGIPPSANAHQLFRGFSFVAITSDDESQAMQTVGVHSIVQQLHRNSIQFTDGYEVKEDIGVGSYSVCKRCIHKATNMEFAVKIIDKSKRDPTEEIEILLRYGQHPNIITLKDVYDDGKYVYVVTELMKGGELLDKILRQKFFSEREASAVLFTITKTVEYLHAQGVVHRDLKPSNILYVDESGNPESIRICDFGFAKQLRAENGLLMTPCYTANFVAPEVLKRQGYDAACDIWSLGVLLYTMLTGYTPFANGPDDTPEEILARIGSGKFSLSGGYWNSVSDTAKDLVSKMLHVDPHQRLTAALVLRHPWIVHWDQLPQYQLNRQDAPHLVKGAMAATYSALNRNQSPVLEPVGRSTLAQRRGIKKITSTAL
# Sequence of AMPKα1(h) (Q13131 whole entry): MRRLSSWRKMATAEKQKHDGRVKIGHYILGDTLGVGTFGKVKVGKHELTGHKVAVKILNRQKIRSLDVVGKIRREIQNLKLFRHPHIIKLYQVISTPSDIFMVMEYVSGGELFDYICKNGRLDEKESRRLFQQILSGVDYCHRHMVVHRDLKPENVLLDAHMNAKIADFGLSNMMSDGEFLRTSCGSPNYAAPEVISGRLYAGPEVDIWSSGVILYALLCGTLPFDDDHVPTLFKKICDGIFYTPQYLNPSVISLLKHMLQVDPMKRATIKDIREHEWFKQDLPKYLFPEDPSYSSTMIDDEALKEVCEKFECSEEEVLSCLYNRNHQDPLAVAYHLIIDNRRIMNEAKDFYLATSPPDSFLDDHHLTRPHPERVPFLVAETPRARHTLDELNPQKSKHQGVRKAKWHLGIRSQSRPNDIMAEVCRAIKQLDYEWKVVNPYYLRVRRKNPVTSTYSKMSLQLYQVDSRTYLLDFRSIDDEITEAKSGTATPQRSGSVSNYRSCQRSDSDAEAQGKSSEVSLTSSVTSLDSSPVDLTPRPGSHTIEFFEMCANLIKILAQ
# Sequence of AMPKα1(h) (Q9Y478 whole entry partner): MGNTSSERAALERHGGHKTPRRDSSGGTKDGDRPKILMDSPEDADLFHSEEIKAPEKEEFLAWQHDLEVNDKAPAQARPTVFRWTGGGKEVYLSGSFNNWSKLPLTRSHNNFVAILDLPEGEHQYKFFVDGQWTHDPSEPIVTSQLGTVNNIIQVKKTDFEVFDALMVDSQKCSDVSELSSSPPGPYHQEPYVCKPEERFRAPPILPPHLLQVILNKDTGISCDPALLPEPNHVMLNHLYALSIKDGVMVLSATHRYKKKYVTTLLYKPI
# Sequence of AMPKα1(h) (P54619 whole entry partner): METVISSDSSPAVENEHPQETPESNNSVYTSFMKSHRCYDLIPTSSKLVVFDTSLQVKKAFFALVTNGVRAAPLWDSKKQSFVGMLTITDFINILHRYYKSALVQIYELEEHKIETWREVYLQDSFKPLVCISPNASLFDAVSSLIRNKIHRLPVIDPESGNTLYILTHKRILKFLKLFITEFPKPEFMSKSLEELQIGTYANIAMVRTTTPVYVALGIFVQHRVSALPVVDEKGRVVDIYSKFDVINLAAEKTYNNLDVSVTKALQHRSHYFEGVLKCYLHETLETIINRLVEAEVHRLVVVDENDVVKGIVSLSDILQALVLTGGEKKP
# Sequence of NLK(h) (Q9UBE8 whole entry): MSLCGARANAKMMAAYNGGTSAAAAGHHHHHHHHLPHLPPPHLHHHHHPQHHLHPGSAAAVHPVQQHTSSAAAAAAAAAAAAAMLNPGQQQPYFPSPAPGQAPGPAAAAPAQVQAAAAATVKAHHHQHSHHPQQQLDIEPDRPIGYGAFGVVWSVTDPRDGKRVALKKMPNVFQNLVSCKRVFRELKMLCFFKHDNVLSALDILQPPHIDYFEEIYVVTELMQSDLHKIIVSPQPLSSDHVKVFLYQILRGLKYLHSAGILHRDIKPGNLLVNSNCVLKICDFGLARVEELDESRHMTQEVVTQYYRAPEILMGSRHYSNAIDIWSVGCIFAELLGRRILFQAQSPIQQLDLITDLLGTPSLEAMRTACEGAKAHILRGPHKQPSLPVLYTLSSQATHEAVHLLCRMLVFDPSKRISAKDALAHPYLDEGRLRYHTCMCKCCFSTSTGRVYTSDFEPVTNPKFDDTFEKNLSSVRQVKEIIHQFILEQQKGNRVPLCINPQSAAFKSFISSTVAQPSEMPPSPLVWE
# Sequence of DAPK1(h) (P53355 whole entry): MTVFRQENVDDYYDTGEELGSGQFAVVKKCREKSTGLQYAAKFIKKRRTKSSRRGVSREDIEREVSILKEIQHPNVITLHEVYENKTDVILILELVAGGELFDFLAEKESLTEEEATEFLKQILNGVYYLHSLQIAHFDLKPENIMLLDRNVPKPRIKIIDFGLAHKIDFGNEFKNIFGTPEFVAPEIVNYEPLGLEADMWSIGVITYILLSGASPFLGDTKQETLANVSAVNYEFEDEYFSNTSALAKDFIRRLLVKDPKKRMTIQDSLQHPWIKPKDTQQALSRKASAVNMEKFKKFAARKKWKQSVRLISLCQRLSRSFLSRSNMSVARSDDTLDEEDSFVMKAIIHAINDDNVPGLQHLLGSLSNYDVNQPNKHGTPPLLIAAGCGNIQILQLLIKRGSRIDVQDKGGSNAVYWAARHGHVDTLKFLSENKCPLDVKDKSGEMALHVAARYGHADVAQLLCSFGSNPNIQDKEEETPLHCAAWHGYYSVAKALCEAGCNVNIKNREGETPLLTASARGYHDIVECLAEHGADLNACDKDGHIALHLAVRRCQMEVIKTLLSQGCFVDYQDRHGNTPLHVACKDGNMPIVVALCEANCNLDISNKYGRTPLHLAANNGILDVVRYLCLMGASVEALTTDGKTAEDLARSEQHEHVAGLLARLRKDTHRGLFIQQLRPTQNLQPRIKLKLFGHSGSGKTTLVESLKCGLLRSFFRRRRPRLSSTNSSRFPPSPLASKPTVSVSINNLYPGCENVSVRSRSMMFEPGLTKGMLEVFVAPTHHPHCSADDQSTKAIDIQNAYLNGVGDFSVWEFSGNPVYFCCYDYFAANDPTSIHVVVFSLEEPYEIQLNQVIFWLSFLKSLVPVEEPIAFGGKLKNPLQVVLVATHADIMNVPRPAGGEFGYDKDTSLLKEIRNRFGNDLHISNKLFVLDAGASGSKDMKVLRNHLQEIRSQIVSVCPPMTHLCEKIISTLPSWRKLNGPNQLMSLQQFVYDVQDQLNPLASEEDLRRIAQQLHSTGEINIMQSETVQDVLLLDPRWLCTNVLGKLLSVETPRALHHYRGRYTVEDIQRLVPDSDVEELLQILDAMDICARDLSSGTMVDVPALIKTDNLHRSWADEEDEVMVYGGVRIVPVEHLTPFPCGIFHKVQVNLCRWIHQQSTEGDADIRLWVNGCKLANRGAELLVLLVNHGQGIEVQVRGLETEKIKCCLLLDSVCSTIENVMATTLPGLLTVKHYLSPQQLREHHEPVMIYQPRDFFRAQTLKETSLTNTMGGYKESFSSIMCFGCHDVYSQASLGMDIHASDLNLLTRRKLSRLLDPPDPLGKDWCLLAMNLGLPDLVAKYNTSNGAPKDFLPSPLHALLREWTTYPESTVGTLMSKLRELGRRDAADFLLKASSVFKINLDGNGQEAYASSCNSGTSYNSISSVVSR
# Sequence of PKCι(h) (P41743 whole entry): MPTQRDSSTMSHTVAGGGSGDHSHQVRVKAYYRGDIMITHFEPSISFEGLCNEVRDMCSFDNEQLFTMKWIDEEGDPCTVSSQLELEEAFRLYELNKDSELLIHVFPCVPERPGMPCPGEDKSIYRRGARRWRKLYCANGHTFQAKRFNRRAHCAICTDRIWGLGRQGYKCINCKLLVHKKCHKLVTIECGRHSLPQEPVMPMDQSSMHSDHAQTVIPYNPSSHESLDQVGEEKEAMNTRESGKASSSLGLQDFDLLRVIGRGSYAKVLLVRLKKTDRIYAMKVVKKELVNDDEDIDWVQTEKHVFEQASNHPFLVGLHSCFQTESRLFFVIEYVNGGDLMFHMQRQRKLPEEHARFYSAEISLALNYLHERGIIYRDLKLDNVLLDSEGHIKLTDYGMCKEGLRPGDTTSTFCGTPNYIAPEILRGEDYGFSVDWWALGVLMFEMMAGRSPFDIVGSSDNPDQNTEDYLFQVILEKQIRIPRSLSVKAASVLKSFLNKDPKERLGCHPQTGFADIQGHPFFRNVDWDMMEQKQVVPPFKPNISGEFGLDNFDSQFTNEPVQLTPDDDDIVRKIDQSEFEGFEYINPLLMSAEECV
smiles,measurement,setting,value
Cc1cc2c(F)c(Oc3nc(Nc4cc(C5CC5)[nH]n4)cc(N4CCN(C)CC4)n3)cc(F)c2[nH]1 [NTW-3475],Activity %,CK1(y),100%
same,Activity %,AMPKα1(h),17%
same,Activity %,CDK2/cyclinA(h),97%
same,Activity %,CK1δ(h),91%
same,Activity %,DAPK1(h),88%
same,Activity %,MKK6(h),113%
same,Activity %,NLK(h),96%
same,Activity %,PKCι(h),105%
same,Activity %,Pim-1(h),114%
same,Activity %,Rsk2(h),65%
same,Activity %,Tie2(R849W)(h),6%
same,Activity %,MLCK(h),110%
same,Activity %,c-RAF(h),94%
same,antiproliferative activity,[1],strong antiproliferative activity in at least 13 of the 16 cell lines studied
same,anti-tumor effect against CML,[2],strong anti-tumor effect
same,anti-tumor effect,[3],anti-tumor effect
same,anti-tumor effect,[4],anti-tumor effect
